Consider three compounds from patent US11841360B1, “Systems, devices, and methods for ex vivo assessment of responses to multiple therapeutic agents” (Oregon Health & Science University, priority 2018, dated 2023).

One data set concerns BT474 tumors. The conditions noted are these: HER2+ luminal-like BT474 tumors, with NRG1b; cited from earlier work.
In a further data set the test system is JIMT1. The following applies: HER2+ basal-like JIMT1, with HGF; cited from earlier work.
For data set [1], the system named is immunocompetent mouse models of triple negative and HER2+ breast cancer with late stage spontaneously developing tumors. Description: MNA small scale screening using 5 FDA approved drugs, CC3 and multiplex IHC. It is filed as in vivo. The following applies: for infiltration of cytotoxic neutrophils: mIHC close to the drug releasing well. An excerpt: Panobinostat induces immunogenic cell death associated with Neuropilin-1 neutrophil infiltration: We have developed a novel pre-clinical model system—the Multiplex Nanodose Assay (MNA)—that enables a comprehensive single cell analysis of drug-mediated effects in complex tumor microenvironment (TME). The MNA is based on a recently developed implantable microdevice that performs drug sensitivity testing of multiple drugs at once inside a living tissue (FIGS. 18A and 18B) (Jonas et al., Sci Transl Med 7:284ra57, 2015; Watson et al., Cell Syst 1-14, 2018, doi.org/10.1016/j.cels.2018.02.001). The drugs are passively released into distinct tumor regions and we analyze the drug mediated effects in close proximity to the drug releasing well by multiplex immunohistochemistry (mIHC) (FIG. 18C). This is a sequential IHC staining on a single formalin fixed paraffin embedded (FFPE) tissue for multiparametric characterization of single cells similar to flow cytometry, except that the cells are studies in their natural intact environment (Tsujikawa et al., Cell Rep 19:203-17, 2017; Chang et al., Proc Annu Int Conf IEEE Eng Med Biol Soc EMBS. 4046-9, 2017). The spatial relation of the functionally different populations facilitates identification of the drug-mediated cellular mechanisms. This knowledge can be then translated to rapidly identify rational combination treatment strategies.
With the MNA, we have performed a small scale screening using 5 FDA approved drugs in immunocompetent mouse models of triple negative and HER2+ breast cancer with late stage spontaneously developing tumors. […]
Since panobinostat-mediated effects in vivo are likely linked to effective anti-tumor immunity and increased response to PD-1 blockade therapy, we took a closer look at the immediate interaction between dying tumor cells and tumor microenvironment. […] In the multiplex readout panel, we incorporated stains that interrogate basic drug-sensitivity testing, epithelial, mesenchymal, endothelial compartment, but mainly multiple markers of immune composition and activity. […]

A further data set concerns MMTV-PyMT tumors. Description: Multiplex nanodose assay (MNA): implantable microdevice in tumor, CC3/MHC-I IHC and multiplex IHC adjacent to the drug-releasing well. It is filed as in vivo, mouse. The conditions noted are these: mIHC, 3 days. An excerpt: Multiplex nanodose assay (MNA) system and translation to breast cancer patients: The illustrated microdevice (FIG. 6A) is a non-toxic 4×0.8 mm resin cylinder with eighteen 200 μm deep reservoirs, that are packed with active compounds (drugs or drug combinations) in solid form. The device is implanted and stays in the tumor tissue for up to 8 days; after which the tumor/tissue surrounding the device is harvested with the device in place and formalin fixed and paraffin embedded (FFPE). The tumor tissue is analyzed adjacent to each drug well using multiplex IHC (mIHC) with antibodies that interrogate one or more of cleaved caspase activity, epithelial, mesenchymal, endothelial status, as well as immune composition and activity. […] Signal of individual markers are merged and the overlap is quantified.
(FIG. 8A). […] Mean intensity value of the CC3 signal was measured adjacent to the drug releasing reservoir and was normalized to control PEG only loaded reservoir. […] (n=3 regions of interest in one sample for (FIG. 8F) and n=3 drug loaded wells for (FIG. 8D); significance was calculated by a two-tailed t-test with equal variance. Of note, early microdevice studies validated each well to be a biological replicate due to heterogeneous nature of tumors in general (Jonas et al., Sci Transl. Med. 7, 284ra59, 2015). Microfluidic ex vivo platform maintains the viability of the primary mouse tumor tissue. […]

Take `CS(=O)(=O)CCNCc1ccc(-c2ccc3ncnc(Nc4ccc(OCc5cccc(F)c5)c(Cl)c4)c3c2)o1` [Lapatinib]: in the data set with BT474 tumors, the “proliferation under TKI in presence of neuregulin-1b (NRG1b)” value is “restores the proliferation”. Moreover, in the data set on JIMT1, the “apoptosis under TKI in presence of hepatocyte growth factor (HGF)” value is on record as “decreasing apoptosis to normal levels”.
Consider `CCOc1cc2ncc(C#N)c(Nc3ccc(OCc4ccccn4)c(Cl)c3)c2cc1NC(=O)/C=C/CN(C)C` [Neratinib], for which, in the data set on BT474 tumors, the “proliferation under TKI in presence of neuregulin-1b (NRG1b)” value was “restores the proliferation”. Moreover, in the data set with JIMT1, the “apoptosis under TKI in presence of hepatocyte growth factor (HGF)” value is reported as “decreasing apoptosis to normal levels”.
With `Cc1[nH]c2ccccc2c1CCNCc1ccc(/C=C/C(=O)NO)cc1` [panobinostat], the “share of Neuropilin-1 positive cells that are cytotoxic neutrophils (Myeloperoxidase staining)” value in data set [1] (at the panobinostat well) is given as roughly 85%. Further, the “infiltration of cytotoxic neutrophils” value is “increased infiltration of cytotoxic neutrophils” in data set [1] and “robust increase of neutrophils” in data set [1] (listed as Panobinostat). In addition, the “infiltrate of cytotoxic neutrophils at the reservoir” value with MMTV-PyMT tumors is on record as “heavy infiltrate of cytotoxic neutrophils”.
